For data set [1] the following is noted: in vivo; cited from earlier work.
A further data set deals with MDA-MB-435 cells. In words: MTT assay, Ad.E1A and Taxol. The format is cell-based. The conditions noted are these: low neu expressing cells. The procedure: The percentage of cell growth was calculated by defining the absorption of cells not treated with taxol or E1A as 100%. Bars, SD.
FIG. 34. […] The percentage of cell growth was calculated by defining the absorption of cells not treated with taxol or E1A as 100%. Bars, SD.
Taxol was given from 0.1 μM to 100 μM (FIGS. 33B and 33D).
Background: Formazan colour is commonly taken as a measure of viable cells.

For the next data set, the system named is B.E1A1.Hy. Briefly: MTT assay, taxol on rat fibroblasts with various neu and E1A expression. The format is cell-based. The following applies: taxol 0.1–10 μM; compared with B104-1-1, B.neo, B.E1A1.D1. The procedure:
FIG. 30B. Effect of taxol (0.01–100 μM) on the cell growth of rat fibroblast with various HER-2/neu and E1A expression. […] Bars, SD.
In order to examine the effects of taxol on cell growth rat fibroblasts with various neu and E1A expression were grown in varying concentrations of taxol 0.01–100 μM. The cell lysates were subsequently run through 8% SDS-PAge and blotted with anti-p185 and anti-E1A antibodies (FIG. 30A). The effects on cell growth were measured using the MTT assay as described earlier.

Starred links: 1 amine or outer side, 2 acyl side, 3 side chain; linkers in the order of their positions; H or OH if unused. Positions of bridges follow the written chain, without caps; N, C: chain ends. Non-standard residues stand in square brackets, D forms with d. Residues, ends and D or L forms follow the SMILES beside them. Chains are numbered I, II in the order given. Actinocin(9to1) = Cc1c2oc3c(C)ccc(C(=O)[*:1])c3nc-2c(C(=O)[*:2])c(N)c1=O; NMeV = CN[C@H](C(=O)O)C(C)C; Sar = CNCC(=O)O

On to `Cc1c2oc3c(C)ccc(C(=O)N[C@@H]4C(=O)N[C@H](C(C)C)C(=O)N5CCC[C@H]5C(=O)N(C)CC(=O)N(C)[C@@H](C(C)C)C(=O)O[C@@H]4C)c3nc-2c(C(=O)N[C@@H]2C(=O)N[C@H](C(C)C)C(=O)N3CCC[C@H]3C(=O)N(C)CC(=O)N(C)[C@@H](C(C)C)C(=O)O[C@@H]2C)c(N)c1=O` [Actinomycin D] (I: T[dV]P[Sar][NMeV] / II: T[dV]P[Sar][NMeV]; ester I:1-I:C, II:1-II:C; linker I:N-II:N via Actinocin(9to1)), for which, in data set [1], the “dose excreted or detected intact in the urine” value is on record as 10%.

As for `CC(=O)O[C@H]1C(=O)[C@@]2(C)[C@H]([C@H](OC(=O)c3ccccc3)[C@]3(O)C[C@H](OC(=O)[C@H](O)[C@@H](NC(=O)c4ccccc4)c4ccccc4)C(C)=C1C3(C)C)[C@]1(OC(C)=O)CO[C@@H]1C[C@@H]2O` [Taxol], in the data set on MDA-MB-435 cells, the “sensitivity to taxol alone” value is “more sensitive to taxol alone”. Moreover, in the data set with B.E1A1.Hy, the “inhibition of cell growth (MTT)” value is on record as “highest inhibition of cell growth”.

As to `CC[C@]1(O)C[C@@H]2CN(CCc3c([nH]c4ccccc34)[C@@](C(=O)OC)(c3cc4c(cc3OC)N(C)[C@H]3[C@@](O)(C(=O)OC)[C@H](OC(C)=O)[C@]5(CC)C=CCN6CC[C@]43[C@@H]65)C2)C1` [Vinblastine], the “dose excreted or detected intact in the urine” value in data set [1] is reported as “Approximately 15%”.

The values are drawn from patent US7005424B2, “Nucleic acid encoding an E1A gene product sensitizes HER-2/neu overexpressing cancer cells to chemotherapy” (priority 1996, dated 2006).
